# Source: US9181187B2, “Therapeutic agent for urinary excretion disorder” (ONO PHARMACEUTICAL CO., LTD., priority 2007, dated 2015)
# Legend:
# [1] = system: male cynomolgus monkeys; test: Animal model of dysuria induced by intravesical infusion of ATP (singlecystometry); format: in vivo, cynomolgus monkey; details: ATP solution intravesical, compound A 0.1 mg/kg subcutaneous
# Method: After administration of ketamine hydrochloride anesthesia (15 to 20 mg/kg), male cynomolgus monkeys (11 years, 3 male (symbol “∘” in the FIG. 1 and FIG. 2 represents individual one.)) were fixed onto a stereotaxic operating table. The top of the bladder catheter was connected to a pressure transducer via a three-way stopcock, and intravesical pressure was recorded using a distortion amplifier and a recorder. The other end of the three-way stopcock were connected to a syringe for intravesical infusion to which an infusion pump was connected and a extension tube which satisfied physiological saline to remove residual urine from bladder.
# The physiological saline was infused into the bladder at an infusion rate of 1.5 to 7.0 mL/min, and immediately after completion of voiding, the intravesical infusion was terminated and residual urine was removed (hereinafter, the above procedures is assumed singlecystometry.) and the procedures were repeated. […] Urinary flow rate (voided volume per voiding time (mL/sec)) and residual urine rate (residual urine volume per voided volume (%)) were calculated for each of the singlecystometry before ATP perfusion, after ATP perfusion and after ATP perfusion conducted after administration of the compound A. The results are shown in FIG. 1 and FIG. 2.
# [2] = molecular target: mouse EP1 receptor (Mus musculus (Mouse), UniProt P35375); test: Measurement of EP1 Antagonist Activity (inhibition of PGE2-induced increase in intracellular calcium); format: cell-based; details: cells expressing mouse EP1 receptor; increase in intracellular calcium induced by PGE2 (100 nM)
# Chain of mouse EP1 receptor (P35375 whole entry): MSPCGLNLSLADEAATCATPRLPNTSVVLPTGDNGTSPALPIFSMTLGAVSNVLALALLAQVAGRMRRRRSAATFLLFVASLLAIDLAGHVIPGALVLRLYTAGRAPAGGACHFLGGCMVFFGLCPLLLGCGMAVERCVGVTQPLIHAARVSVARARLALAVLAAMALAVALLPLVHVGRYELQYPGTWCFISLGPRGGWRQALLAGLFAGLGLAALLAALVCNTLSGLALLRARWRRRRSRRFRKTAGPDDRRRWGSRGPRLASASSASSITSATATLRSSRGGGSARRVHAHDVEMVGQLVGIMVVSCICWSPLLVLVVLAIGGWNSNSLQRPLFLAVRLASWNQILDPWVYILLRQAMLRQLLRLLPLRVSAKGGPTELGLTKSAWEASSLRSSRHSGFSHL
# Method: The cells expressing mouse EP1 receptor were seeded at 10^4 cells/well in 96-well plates and cultured for 2 days with 10% Fetal Bovine Serum (FBS)/alpha Modified Eagle Medium (αMEM) in the incubator (37° C., 5% CO2). The cells were washed with phosphate buffer, and load buffer (10% FBS/αMEM containing Fura2/AM (5 μM), indomethacin (20 μM) and probenecid (2.5 mM)) was then added to each well and cells were left standing for 1 hour. Load buffer of each well was discarded and assay buffer (Hank's Balanced Salt Solution (HBSS) containing indomethacin (2.5 mM), probenecid (2.5 mM), HEPES-NaOH (10 mM) and 0.1% (w/v) Bovine Serum Albumin (BSA)) was added to each well and plates were left at room temperature in a dark room for 1 hour. Afterwards, compounds of the present invention (10 μL) or PGE2 (10 μL) prepared with assay buffer was added to each well and intracellular calcium concentrations were measured using a Fluorescence Drug Screening System (FDSS-4000, Hamamatsu Photonics K.K.). Changes in ratio of fluorescent intensity at 500 nm in cells exposed to alternating 2 excitation wavelengths was monitored as changes in intracellular calcium concentrations.
# IC50 values were calculated based on the response inhibition rate of increase in intracellular calcium concentrations induced by PGE2 (100 nM) and was used as an index of EP1 antagonistic activity.
compound,measurement,setting,value
"Cc1cc(C(=O)O)ccc1COc1cc2c(cc1N(CC(C)C)S(=O)(=O)c1nccs1)CCC2 [Compound A, 3-methyl-4-[6-[N-isobutyl-N-(2-thiazolylsulfonyl)amino]indan-5-yloxymethyl]benzoic acid]",Urinary flow rate (voided volume per voiding time),[1]; FIG. 1,recovered the urinary flow rate decreased by ATP
same,Residual urine rate (residual urine volume per voided volume),[1]; FIG. 2,decreased the residual urine rate
same,IC50,[2],6.9 nM
"Cc1ccc(S(=O)(=O)N(CC(C)C)c2cc3c(cc2OCc2ccc(C=CC(=O)O)cc2)CCC3)o1 [Compound E, 4-[6-[N-isobutyl-N-(5-methyl-2-furylsulfonyl)amino]indan-5-yloxymethyl]cinnamic acid]",IC50,[2],21 nM
"Cc1csc(S(=O)(=O)N(CC(C)C)c2ccc(C(F)(F)F)cc2OCc2ccc(C=CC(=O)O)cc2)n1 [Compound G, 4-[2-[N-isobutyl-N-(4-methyl-2-thiazolylsulfonyl)amino]-5-trifluoromethylphenoxymethyl]cinnamic acid]",IC50,[2],25 nM
"Cc1cc(OCc2ccc(C=CC(=O)O)cc2C)c(N(CC(C)C)S(=O)(=O)c2cccnc2)cc1C [Compound I, 3-methyl-4-[2-[N-isobutyl-N-(3-pyridylsulfonyl)amino]-4,5-dimethylphenoxymethyl]cinnamic acid]",IC50,[2],9.2 nM
"Cc1csc(S(=O)(=O)N(c2cc(C)c(Cl)cc2OCc2ccc(-c3nnn[nH]3)cc2)C(C)C)n1 [Compound J, N-[4-chloro-5-methyl-2-[4-(5-tetrazolyl)phenylmethyloxy]phenyl]-N-isopropyl-(4-methyl-2-thiazolyl)sulfonylamide]",IC50,[2],4.9 nM
"Cc1cc(OCc2ccc(-c3nnn[nH]3)cc2Cl)c(N(C(C)C)S(=O)(=O)c2cccnc2)cc1C [Compound K, N-[4,5-dimethyl-2-[2-chloro-4-(5-tetrazolyl)phenylmethyloxy]phenyl]-N-isopropyl-3-pyridylsulfonylamide]",IC50,[2],3.7 nM
"Cc1csc(S(=O)(=O)N(c2cc(C)c(C)cc2OCc2ccc(-c3noc(=O)[nH]3)cc2)C(C)C)n1 [Compound L, N-[4,5-dimethyl-2-[4-(5-oxo-1,2,4-oxadiazol-3-yl)phenylmethyloxy]phenyl]-N-isopropyl-(4-methyl-2-thiazolyl)sulfonylamide]",IC50,[2],7.1 nM
